Here are results for two molecules from patent US20240123079A1 (Seagen Inc., priority 2021, published 2024).

In data set [1] the test system is L540cy. As to the kind of experiment: Cancer cell direct cytotoxicity assay (CellTiter-Glo), L540cy. The data set is classed as cell-based. The note with it: Homo sapiens, 96 h, free compound, read-out: Compound X50. The procedure: (§1) Bystander activity of ADCs was evaluated using Renca cancer cells and THP1-Dual™ cells (InvivoGen) which contain an IRF-Lucia luciferase reporter. Cells were cultured in RPMI-1640 (Gibco) with 10% heat-inactivated fetal bovine serum, Pen-Strep (100 U/ml-100 μg/ml, Gibco), HEPES (10 mM, Gibco), sodium pyruvate (1 mM, Gibco), MEM non-essential amino acids (1×, Gibco), GlutaMAX (1×, Gibco), and beta-mercaptoethanol (55 μM, Gibco). Renca cells were plated in a 96-well flat bottom tissue culture-treated clear polystyrene plate (Corning Costar #3596) at 50,000 cells per well in 100 μL. On the day following the initial plating, 50,000 THP1-Dual™ cells were added to each well with the indicated concentration of ADC in a total volume of 200 μL. Supernatant was harvested at 48 hours post addition of the THP1-Dual™ cells. To measure Lucia reporter signal, 10 μL of supernatant was combined with 40 μL of QUANTI-Luc™ Luminescence assay reagent (Invivogen PN: rep-qlc1) in a 96-well clear flat bottom tissue culture-treated black polystyrene plate (Corning Costar PN: 3603) and read on a Perkin Elmer Envision plate reader. In some experiments, HEK 293T cells engineered to express a murine protein typically expressed by immune cells (target antigen C— an immune cell antigen) were plated as above instead of Renca tumor cells. Cancer Cell Direct Cytotoxicity Assay
(§2) Cancer cells were counted and plated in 40 μL complete growth media in 384-well, white-walled tissue culture treated plates (Corning). Cell plates were incubated at 37° C. and with 5% CO2 overnight to allow the cells to equilibrate. Stock solutions containing ADCs or free drugs were serially diluted in RPMI-1640+20% fetal bovine serum (FBS). 10 μL of each concentration were then added to each cell plate in duplicate. Cells were then incubated at 37° C. and with 5% CO2 for 96 hours, upon which, the cell plates were removed from the incubator and allowed to cool to room temperature for 30 minutes prior to analysis. […] The luminescence of the samples was measured using an EnVision Multimode plate reader (Perkin Elmer, Waltham, MA). […]

Data set [2] relates to MOLM-13. As to the kind of experiment: Cancer cell direct cytotoxicity assay (CellTiter-Glo), MOLM-13. The data set is classed as cell-based. The note with it: Homo sapiens; MOLM-13, 96 h, free compound; read-out: Compound X50. The method, then: as §1, §2
Background: In ATP-based viability assays light output follows the ATP content of the culture.

Data set [3] has as its system 786-O. As to the kind of experiment: Cancer cell direct cytotoxicity assay (CellTiter-Glo), 786-O. The data set is classed as cell-based. The note with it: Homo sapiens, 786-0, 96 h, free compound, read-out: Compound X50. The procedure: as §1, §2
The subject of data set [4] is DELBVR. As to the kind of experiment: Cancer cell direct cytotoxicity assay (CellTiter-Glo), DELBVR. The data set is classed as cell-based. The settings on record: Homo sapiens, 96 h, free compound, read-out: Compound X50. The method, then:
as §1, §2

The test system of data set [5] is wild type (WT) murine bone marrow-derived macrophages. As to the kind of experiment: Bone marrow-derived macrophage assay, wild type. The data set is classed as cell-based, mouse. The settings on record: 24 h. The method, then:
Bone Marrow-Derived Macrophage Assay
Potency of the compounds described herein was evaluated using mouse bone-marrow derived macrophages cultured from wild type (C57BL/6J, the Jackson Laboratory #000664) or STING-deficient (C57BL/6J-Sting1^gt/J, the Jackson Laboratory #017537) mice. Briefly, mouse bone marrow cells were cultured for 7-10 days in RPMI-1640 (Gibco) with 10% heat-inactivated fetal bovine serum, Pen-Strep (100 U/mL-100 μg/mL, Gibco), HEPES (10 mM, Gibco)), sodium pyruvate (1 mM, Gibco), GlutaMAX (1×, Gibco), beta-mercaptoethanol (55 μM, Gibco) and 20-40 ng/mL murine M-CSF (Peprotech, #315-02). Cells were plated in a 96-well flat bottom tissue culture-treated clear polystyrene plate (Corning Costar #3596) at ˜100,000 cells per well in 200 μL with the indicated concentration of the compound. The supernatant was harvested at 24 hours and cytokines were measured using a Milliplex MAP mouse cytokine/chemokine magnetic bead panel assay kit (MCYTOMAG-70k custom 11-plex kit: MCP1, MIP1α, MIP1β, TNFα, IFNγ, IL-10, IL-12p70, IL-1β, IL-6, IP10, RANTES) and analyzed using a Luminex™ MAGPIX™ Instrument System.

For data set [6], the system named is A2058. As to the kind of experiment: Cancer cell direct cytotoxicity assay (CellTiter-Glo), A2058. The settings on record: Homo sapiens; A2058, 96 h, free compound; read-out: Compound X50. The data set is classed as cell-based. The procedure:
as §1, §2

Data set [7] relates to MDAMB231. As to the kind of experiment: Cancer cell direct cytotoxicity assay (CellTiter-Glo), MDAMB231. The data set is classed as cell-based. The settings on record: Homo sapiens, MDA-MB-231; MDAMB231, 96 h, free compound; read-out: Compound X50. The procedure: as §1, §2
Data set [8] deals with Karpas299. As to the kind of experiment: Cancer cell direct cytotoxicity assay (CellTiter-Glo), Karpas299. The data set is classed as cell-based. The settings on record: Homo sapiens, KARPAS-299; Karpas299, 96 h, free compound; read-out: Compound X50. The procedure: as §1, §2
Data set [9] relates to Renca cancer cells. As to the kind of experiment: Renca tumor model, in vivo anti-tumor activity and weight change. The settings on record: for anti-tumor activity / tumor growth delay: Renca tumor-bearing Balb/c mice. The procedure:
In some experiments, Renca tumor cells were engineered to express the indicated murine or human target antigen.
When tumor volumes reached 100 mm^3, the mice were dosed with either compounds or ADCs by intraperitoneal or intravenous injection at the indicated dosing schedule and tumor volumes were monitored twice weekly. Compounds were formulated in 40% PEG400 in saline.
A syngeneic system was used to assess the ability of the STING agonist ADCs to induce immune responses in vivo and drive an anti-tumor immune response. The Renca system is a subcutaneous, mouse renal adenocarcinoma model. Female Balb/c mice were implanted with 2×10^6 Renca cells subcutaneously in the flank on day 0. When mean tumor size of 100 mm^3 (measured by using the formula Volume (mm^3)=0.5*Length*Width^2 where length is the longer dimension) was reached mice were randomized into treatment groups of ≥5 mice per group. Animals were then treated intraperitoneally (ADCs or compounds) or intravenously (compounds) with the indicated treatment every 7 days, for 3 doses total (or as indicated). Tumor length and width and the weight of the animals was measured throughout the study and tumor volume was calculated using the formula above. Animals were followed until the tumor volume reached ˜1000 mm^3; animals were then euthanized.

In data set [10] the test system is human cancer cell lines. As to the kind of experiment: Cancer cell direct cytotoxicity assay, panel statement. The data set is classed as cell-based. The note with it: panel of human cancer cell lines. The method, then: as §1
Cancer cells were counted and plated in 40 μL complete growth media in 384-well, white-walled tissue culture treated plates (Corning). Cell plates were incubated at 37° C. and with 5% CO2 overnight to allow the cells to equilibrate. […] The luminescence of the samples was measured using an EnVision Multimode plate reader (Perkin Elmer, Waltham, MA). […]
Compound 12a was conjugated to both targeted and non-binding antibodies using a variety of non-cleavable linkers (12, 17, 19-24) and the resulting ADCs were assessed for their ability to activate THP1-Dual™ reporter cells. […] We also evaluated the ability of these linkers to directly kill cancer cells when conjugated to targeted mAbs binding tumor antigen A or antigen B (CD30).

`CCn1nc(C)cc1C(=O)Nc1nc2cc(C(N)=O)cc(O)c2n1C/C=C/Cn1c(NC(=O)c2cc(C)nn2CC)nc2cc(C(N)=O)cc(OC)c21` [Compound 1, (E)-1-(4-(5-carbamoyl-2-(1-ethyl-3-methyl-1H-pyrazole-5-carboxamido)-7-hydroxy-1H-benzo[d]imidazol-1-yl)but-2-en-1-yl)-2-(1-ethyl-3-methyl-1H-pyrazole-5-carboxamido)-7-methoxy-1H-benzo[d]imidazole-5-carboxamide]: the IC50 was 31 nM in data set [1]; 42 nM in [2]; greater than 1000 nM in data set [3]; 16 nM in [4]; greater than 1000 nM in data set [6]; greater than 1000 nM in [7]. The IC50 in [8] was greater than 1000 nM. Moreover, the cytokine production result in data set [5] is on record as “induced cytokine production”. Besides, in data set [9] (q7dx3), the “anti-tumor activity / tumor growth delay” value is listed as “some tumor growth delay”. The “tolerability” value in data set [9] (Renca tumor-bearing mice) is listed as “well tolerated”. Besides, in data set [9] (Renca tumor-bearing mice, q7dx3), the “average weight loss after the 1st and 2nd dose” value was less than 5%. Also, the “direct cytotoxic activity on cancer cell lines” value in [10] is on record as “demonstrated direct cytotoxic activity on a subset of cancer cell lines”.
Take `CCn1nc(C)cc1C(=O)Nc1nc2cc(C(N)=O)cc(OC)c2n1C/C=C/Cn1c(NC(=O)c2cc(C)nn2CC)nc2cc(C(N)=O)cc(OCCCNC)c21` [Compound 12a]: the IC50 in data set [1] was 83 nM; in data set [2], 87 nM; in data set [3], greater than 1000 nM; in data set [4], 111 nM; in [6], greater than 1000 nM; in [7], greater than 1000 nM. For the same molecule, in data set [8], the IC50 was greater than 1000 nM. In addition, the cytokine production entry in data set [5] is reported as “induced cytokine production”. For the same molecule, the “anti-tumor activity / tumor growth delay” value in data set [9] (q7dx3) was “limited anti-tumor efficacy”. Besides, in [10], the “direct cytotoxic activity on cancer cell lines” value is given as “demonstrated direct cytotoxic activity on a subset of cancer cell lines”.
